# In patent publication US20110207729A1, “BICYCLIC ACYLGUANIDINE DERIVATIVE” (ASTELLAS PHARMA INC., priority 2007, published 2011):
# Molecular target: T1, human 5-HT5A receptor (Homo sapiens, UniProt P47898)
# T1 construct: expressed in transfected cells; membrane preparation
# Test: Test on a human 5-HT5A receptor binding inhibition ([3H]5-CT)
# Settings: membrane from HEK293 cells expressing human 5-HT5A receptor; Ki calculated from IC50 and Kd 4.95 nM
# Protocol: Acquisition of HEK293 cells for forced expressions of a human 5-HT5A receptor
# The ORF (open reading frame; protein coding region) of a human 5-HT5A receptor (Genbank AF498985) was cloned from a human hippocampus cDNA library, and then inserted into a pCR2.1 vector (Invitrogen), and Escherichia coli containing the plasmid was cultured in a large amount. Next, the full-length cDNA sequence of the human 5-HT5A receptor was analyzed, and recombined into a pcDNA3.1 vector (Invitrogen) as an expression vector and cultured in a large amount. HEK293 established cells (ATCC) derived from the human fetal kidney were seeded, the expression plasmid (1 μg) obtained above were added thereto with LIPOFECTAMINE 2000 (Invitrogen; 2 μl), the gene was transfected into HEK293 cells, and the expression cells were screened with a drug-resistant marker, Geneticin (G418 sulfate 500 μg/ml; Kanto Chemical Co., Inc.). Thus prepared recombinant cells which express the gene were cultured in a medium containing D-MEM (Dulbecco's modified eagle medium, Sigma), 10% FCS (Fetal calf serum: fetal bovine serum), 1% Pc./Sm (Penicillin/Streptomycin, Invitrogen), and 500 μg/ml G418 for 3 days. These experimental operations follow an manual for gene operation experiment and an instruction appended in a reagent, and the like, such as a known method (Sambrook, J. et al, Molecular Cloning—A Laboratory Manual”, Cold Spring Harabor laboratory, NY, 1989).
# (1) Preparation of a Membrane from HEK293 Cells for Forced Expressions of a Human 5-HT5A Receptor
# HEK293 cells for forced expressions of a human 5-HT5A receptor were cultured in a F500 plate, and scraped with a scraper. After centrifugation, a precipitate was collected, and an incubation buffer (50 mM Tris (HCl) (pH 7.4), 10 mM MgSO4, and 0.5 mM EDTA (ethylenediamine tetraacetic acid)) were added thereto. After homogenization, it was further centrifuged, and the precipitate was added with the incubation buffer, followed by thoroughly suspending. This operation was repeated, and a protein concentration was measured, thereby completing the preparation of a membrane.
# (2) Test on a Human 5-HT5A Receptor Binding Inhibition
# A solution of a compound to be tested and 100 μM 5-CT (5-carboxamidetriptamine) in DMSO was added to a 96-well plate at 2 μl/well, and suspended in an incubation buffer, and a membrane from HEK293 cells for forced expressions of a human 5-HT5A receptor prepared at 200 μg/ml was added at 100 μl/well. After incubation at room temperature for 15 minutes, a [^3H]5-CT solution (2 nM [^3H]5-CT, incubation buffer) was added thereto at 100 μl/well.
# Separately, 100 μl of the solution was distributed into a liquid scintillation vial, and 2 ml of Aquasol II (registered trademark) was added thereto, followed by stirring. Then, a radioactivity was measured by a liquid scintillation counter. It was incubated at 37° C. for 60 minutes. The reaction mixture was sucked into 96-well GF/C filter plate that had been pre-treated with 0.2% polyethyleneimine, and washed six times with an ice-cooled, 50 mM Tris (pH 7.5) buffer. The GF/C filter plate was dried.
# Microscint TMPS (registered trademark) was added thereto at 40 μl/well. A radioactivity remaining on the GF/C filter plate was measured by a top counter.
# The [^3H]5-CT binding inhibiting activity by the compound to be tested in each experiment was determined as an IC50 value with a radioactivity upon addition of DMSO alone being 0% inhibition, and a radioactivity upon addition of 1 μM 5-CT being 100% inhibition. Separately, a Ki value was calculated from the Kd value of the [^3H]5-CT determined from Scatchard analysis, by the following equation.
# Ki=IC50(1+Concentration of ligands added/Kd(4.95 nM))
# T1 sequence (P47898 whole entry): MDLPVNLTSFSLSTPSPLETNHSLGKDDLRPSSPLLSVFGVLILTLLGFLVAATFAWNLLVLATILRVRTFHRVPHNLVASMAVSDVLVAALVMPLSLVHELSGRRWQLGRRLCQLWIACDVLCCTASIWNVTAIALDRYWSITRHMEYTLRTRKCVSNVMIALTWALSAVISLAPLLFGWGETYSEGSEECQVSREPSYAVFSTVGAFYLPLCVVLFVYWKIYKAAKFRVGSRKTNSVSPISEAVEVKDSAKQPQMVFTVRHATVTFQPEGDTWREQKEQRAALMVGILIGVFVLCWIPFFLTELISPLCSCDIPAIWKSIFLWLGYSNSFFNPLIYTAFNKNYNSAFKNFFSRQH
row,Structure (SMILES),Ki
1,Cc1cc(C)c(C2=CCCc3ccc(C(=O)N=C(N)N)cc32)c(C)c1 [Example 2-69],3 to 30 nM
2,CC1=C(c2ccc(Cl)cc2Cl)c2cc(C(=O)N=C(N)N)ccc2CC1 [Example 2-144],0.3 to 3 nM
3,NC(N)=NC(=O)c1ccc2c(c1)C(c1ccc(C(F)(F)F)cc1C(F)(F)F)=CCC2 [Example 2-117],30 to 300 nM
4,NC(N)=NC(=O)c1ccc2c(c1)C(c1ccc([N+](=O)[O-])cc1)=CCC2 [Example 2-48],0.3 to 3 nM
5,NC(N)=NC(=O)c1ccc2c(c1)C(c1ccc(F)cc1)=C(F)CC2 [Example 2-96],0.3 to 3 nM
6,NC(N)=NC(=O)c1ccc2c(c1)C(c1ccco1)=CCC2 [Example 2-20],3 to 30 nM
7,COc1cc2c(cc1C(=O)N=C(N)N)C(c1c(F)cc(F)cc1F)=CCO2 [Example 1-118],0.3 to 3 nM
8,NC(N)=NC(=O)c1ccc2scc(-c3ccccc3O)c2c1 [Example 3-29],0.3 to 3 nM
9,NC(N)=NC(=O)c1ccc2c(c1)C(c1ccc(Cl)cc1F)=CCC2 [Example 2-67],0.3 to 3 nM
10,CC1C=C(c2ccc(C#N)cc2)c2cc(C(=O)N=C(N)N)ccc2O1 (stereo not shown) [Example 1-72],3 to 30 nM
11,N#Cc1ccc(C2=CCCCc3ccc(C(=O)N=C(N)N)cc32)cc1 [Example 3-04],30 to 300 nM
12,Cn1cc(C2=CCCc3ccc(C(=O)N=C(N)N)cc32)cn1 [Example 2-77],30 to 300 nM
13,N#Cc1cc(F)ccc1C1=CCOc2ccc(C(=O)N=C(N)N)cc21 [Example 1-48],3 to 30 nM
14,COc1ccc(C2=CCCc3ccc(C(=O)N=C(N)N)cc32)c(C#N)c1 [Example 2-68],30 to 300 nM
15,N#Cc1ccccc1C1=CCOc2ccc(C(=O)N=C(N)N)cc21 [Example 1-21],3 to 30 nM
16,NC(N)=NC(=O)c1ccc2c(c1)C(c1ccc(O)cc1)=CCC2 [Example 2-52],0.3 to 3 nM
17,NC(N)=NC(=O)c1ccc2scc(-c3ccc(F)cc3)c2c1 [Example 3-25],0.3 to 3 nM
18,NC(N)=NC(=O)c1ccc2c(c1)C(c1ccc(Cl)cc1Cl)=CCO2 [Example 1-51],0.3 to 3 nM
19,CC1C=C(c2cccs2)c2cc(C(=O)N=C(N)N)ccc2O1 (stereo not shown) [Example 1-166],3 to 30 nM
20,CC1(C)C=C(c2c(F)cccc2F)c2cc(C(=O)N=C(N)N)ccc2O1 [Example 1-109],3 to 30 nM
21,NC(N)=NC(=O)c1ccc2c(c1)C(c1cccc(O)c1)=CCC2 [Example 2-51],0.3 to 3 nM
22,N#Cc1cc(C2=CCOc3ccc(C(=O)N=C(N)N)cc32)ccc1F [Example 1-49],30 to 300 nM
23,NC(N)=NC(=O)c1ccc2c(c1)C(c1ccc(F)cc1F)=C(F)CC2 [Example 2-90],3 to 30 nM

row,Structure (SMILES),Ki
1,CC1C=C(c2ccc(F)c(F)c2)c2cc(C(=O)N=C(N)N)ccc2O1 (stereo not shown) [Example 1-146],30 to 300 nM
2,NC(N)=NC(=O)c1ccc2c(c1)C(c1ccccn1)=CCC2 [Example 2-89],30 to 300 nM
3,NC(=O)c1cccc(C2=CCCc3ccc(C(=O)N=C(N)N)cc32)c1 [Example 2-30],30 to 300 nM
4,NC(N)=NC(=O)c1ccc2c(c1)C(c1cc(C(F)(F)F)ccc1F)=CCO2 [Example 1-65],3 to 30 nM
5,COc1ccccc1-c1c(C#N)sc2ccc(C(=O)N=C(N)N)cc12 [Example 3-39],3 to 30 nM
6,NC(N)=NC(=O)c1ccc2c(c1)C(c1c(F)cc(F)cc1F)=CCCC2 [Example 3-05],3 to 30 nM
7,NC(N)=NC(=O)c1ccc2c(c1)C(c1cccs1)=CCC2 [Example 2-21],0.3 to 3 nM
8,NC(N)=NC(=O)c1ccc2c(c1)C(c1ccccc1)=C(F)CO2 [Example 1-14],0.97 nM
9,"NC(N)=NC(=O)c1ccc2c(c1)C(c1ccoc1)=CCC2 [Example 2-01, N-(diaminomethylene)-8-(3-furyl)-5,6-dihydronaphthalene-2-carboxamide methane sulfonate]",3 to 30 nM
10,NC(N)=NC(=O)c1ccc2c(c1)C(c1cc(F)ccc1Cl)=CCC2 [Example 2-169],3 to 30 nM
11,COc1cccc(C#N)c1C1=CCCc2ccc(C(=O)N=C(N)N)cc21 [Example 2-66],30 to 300 nM
12,CC1C=C(c2ccc(Cl)nc2Cl)c2cc(C(=O)N=C(N)N)ccc2O1 (stereo not shown) [Example 1-147],30 to 300 nM
13,N/C(=N\C(=O)c1ccc2c(c1)C(c1c(F)cccc1F)=CCO2)NCC1CC1 [Example 1-76],3 to 30 nM
14,NC(N)=NC(=O)c1ccc2scc(-c3ccncc3)c2c1 [Example 3-37],30 to 300 nM
15,Cc1ccc(C2=CCCc3ccc(C(=O)N=C(N)N)cc32)c(Cl)c1 [Example 2-134],0.3 to 3 nM
16,COc1ccccc1-c1c(C)sc2ccc(C(=O)N=C(N)N)cc12 [Example 3-33],0.3 to 3 nM
17,N#Cc1cc(C2=CCCc3ccc(C(=O)N=C(N)N)cc32)ccc1F [Example 2-62],30 to 300 nM
18,NC(N)=NC(=O)c1ccc2scc(-c3ccc(F)cc3F)c2c1 [Example 3-30],0.3 to 3 nM
19,NC(N)=NC(=O)c1ccc2c(c1)C(c1ccccc1C(F)(F)F)=CCO2 [Example 1-15],3 to 30 nM
20,CCOc1ccccc1C1=CCCc2ccc(C(=O)N=C(N)N)cc21 [Example 2-44],30 to 300 nM
21,NC(N)=NC(=O)c1ccc2c(c1)C(c1ccc(Cl)cc1F)=CCO2 [Example 1-54],0.3 to 3 nM
22,NC(N)=NC(=O)c1ccc2c(c1)C(c1ccccc1OC(F)(F)F)=CCC2 [Example 2-98],30 to 300 nM
23,NC(N)=NC(=O)c1ccc2c(c1)C(c1cncc(F)c1)=CCC2 [Example 2-123],30 to 300 nM

row,Structure (SMILES),Ki
1,CC1C=C(c2c(F)cccc2F)c2cc(C(=O)N=C(N)N)ccc2O1 (stereo not shown) [Example 1-126],3 to 30 nM
2,NC(N)=NC(=O)c1ccc2scc(-c3c(F)cc(F)cc3F)c2c1 [Example 3-14],0.3 to 3 nM
3,CC1C=C(c2cccnc2)c2cc(C(=O)N=C(N)N)ccc2O1 (stereo not shown) [Example 1-128],30 to 300 nM
4,N#Cc1ccc(C2=C(F)CCc3ccc(C(=O)N=C(N)N)cc32)cc1 [Example 2-91],0.3 to 3 nM
5,COc1cc(F)c(F)cc1C1=CCCc2ccc(C(=O)N=C(N)N)cc21 [Example 2-100],3 to 30 nM
6,NC(N)=NC(=O)c1ccc2c(c1)C(c1nccs1)=CCC2 [Example 2-93],30 to 300 nM
7,NC(N)=NC(=O)c1ccc2c(c1)C(c1ccccc1)=CCCC2 [Example 3-03],30 to 300 nM
8,CC1=C(c2ccccc2)c2cc(C(=O)N=C(N)N)ccc2CC1 [Example 2-56],2.3 nM
9,N#Cc1cc(Cl)ccc1C1=CCCc2ccc(C(=O)N=C(N)N)cc21 [Example 2-185],30 to 300 nM
10,COc1ccc(-c2csc3ccc(C(=O)N=C(N)N)cc23)cc1 [Example 3-24],3 to 30 nM
11,NC(N)=NC(=O)c1ccc2c(c1)C(c1ccc(F)c(F)c1F)=CCC2 [Example 2-95],0.3 to 3 nM
12,NC(N)=NC(=O)c1ccc2c(c1)C(c1cccc(C(F)(F)F)c1)=CCO2 [Example 1-52],3 to 30 nM
13,CC1C=C(c2cccnc2Cl)c2cc(C(=O)N=C(N)N)ccc2O1 (stereo not shown) [Example 1-127],30 to 300 nM
14,Cc1cc(Cl)ccc1C1=CCOc2ccc(C(=O)N=C(N)N)cc21 [Example 1-92],0.3 to 3 nM
15,CCC1=C(c2ccccc2)c2cc(C(=O)N=C(N)N)ccc2CC1 [Example 2-115],3 to 30 nM
16,Cc1ccc(C2=CCSc3ccc(C(=O)N=C(N)N)cc32)c(F)c1 [Example 3-15],3 to 30 nM
17,COc1cc(F)c(C2=C(C)CCc3ccc(C(=O)N=C(N)N)cc32)c(F)c1 [Example 2-178],0.3 to 3 nM
18,NC(N)=NC(=O)c1ccc2c(c1)C(c1cccc(Cl)c1)=CCC2 [Example 2-10],3 to 30 nM
19,NC(N)=NC(=O)c1ccc2scc(-c3ccccc3F)c2c1 [Example 3-26],0.3 to 3 nM
20,COc1ccc(C#N)cc1C1=CCCc2ccc(C(=O)N=C(N)N)cc21 [Example 2-61],3 to 30 nM
21,NC(N)=NC(=O)c1ccc2c(c1)C(c1c(F)ccc(F)c1F)=CCC2 [Example 2-99],0.3 to 3 nM
